Like-named read-outs stand apart in the source and are kept apart here.
Assays:
[1] = target: T1, human α1A adrenergic receptor (Homo sapiens, UniProt P35348); assay: Test Example 4: human α1A adrenergic receptor agonist activity (Ca flux, Fura-2, transfected HEK293 cells); assay type: cell-based; settings: for Emax: HEK293, read-out: α1A receptor I.A.; for α1A receptor I.A.: maximum response to norepinephrine taken as 100%
T1 construct: expressed in transfected cells; host or cells: HEK293 cells, pcDNA3.1(−), hygromycin B selection
T1 sequence (P35348 1-466): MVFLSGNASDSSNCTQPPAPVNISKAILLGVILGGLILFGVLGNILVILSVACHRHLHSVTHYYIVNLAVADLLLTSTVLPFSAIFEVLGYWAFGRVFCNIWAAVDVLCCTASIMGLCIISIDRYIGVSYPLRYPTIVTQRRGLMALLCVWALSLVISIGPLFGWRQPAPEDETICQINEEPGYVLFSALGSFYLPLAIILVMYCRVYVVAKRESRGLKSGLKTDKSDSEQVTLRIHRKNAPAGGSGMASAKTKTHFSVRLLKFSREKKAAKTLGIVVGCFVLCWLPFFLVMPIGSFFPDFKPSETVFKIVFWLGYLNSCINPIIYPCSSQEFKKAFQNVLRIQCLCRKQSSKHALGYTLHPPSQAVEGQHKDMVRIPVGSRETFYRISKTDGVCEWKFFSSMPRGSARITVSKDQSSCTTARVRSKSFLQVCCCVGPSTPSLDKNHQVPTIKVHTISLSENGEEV
Description: Measurement of Human α1A Adrenergic Receptor Agonist Activity
The measurement of human α1A adrenergic receptor agonist activity is carried out using HEK293 cells transfected with pcDNA3.1(−) (manufactured by Invitrogen, Inc.) to which human α1A gene has been inserted. These cells are cultured in DMEM medium containing 10% fetal bovine serum, 400 μg/ml hygromycin B (manufactured by Gibco BRL), 100 U/ml penicillin and 100 μg/ml streptomycin. […] The cells are loaded in a CO2 incubator for 30 minutes, and then are washed twice with the Assay Buffer to remove excess Fura-2AM. The cells are centrifuged, and then are prepared into a solution at 5×10^6 cells/ml with the Assay Buffer. Subsequently, the cells are dispensed on a 96-well plate (manufactured by Corning, Inc.) at a volume of 80 μl/well, and the plate is used as a cell plate. […] Subsequently, measurement of fluorescence intensity (excitation wavelength 340 nm and 380 nm, measurement wavelength 500 nm) is initiated at an interval of 2 seconds. After making measurements for about 30 seconds, 20 μl of the test sample from the sample plate is added to the cell plate, and measurements are further continued for 270 seconds. The Ca flux resulting from the test compound is calculated utilizing the difference between the maximum value of fluorescence intensity ratio at the wavelengths 340 nm and 380 nm after the addition of the test compound, and the fluorescence intensity ratio before the addition of the test compound, as the peak height.

[2] = test system: urinary bladder smooth muscle isolated from common marmoset; assay: Test Example 7: relaxant activity on urinary bladder smooth muscle isolated from common marmoset; settings: KCl 40 mmol/L contraction, papaverine 10^−4 mol/L relaxation taken as 100%
Description: Common marmosets are (CLEA Japan, Inc.) exsanguinated to death, and then are subjected to laparotomy to isolate the urinary bladder therefrom. […] The strips are applied a resting tension of 1 g, and are equilibrated for at least 30 minutes. After the resting tension of the strips have been equilibrated, KCl at a final concentration of 40 mmol/L is repeatedly added to the organ bath, and it is confirmed that contraction due to KCl becomes almost constant. […] When the relaxation response at the maximum concentration of the test compound is completed, papaverine at a final concentration of 10^−4 mol/L is added, and the maximum relaxation response of each strip is determined.

[3] = test system: rat under pentobarbital anesthesia; assay: Test Example 9: effect on blood pressure and heart rate of rat under pentobarbital anesthesia; assay type: in vivo; settings: 3 mg/kg intravenous, male SD rat, average value ± standard error of largest change
Description: Effect on Blood Pressure and Heart Rate of Rat Under Pentobarbital Anesthesia
The effect of intravenous bolus administration of a test compound exerted on the blood pressure and heart rate can be investigated by measuring the blood pressure and heart rate of a rat under pentobarbital anesthesia. 50 mg/kg of pentobarbital sodium (manufactured by Tokyo Chemical Industry Co., Ltd.) is intraperitoneally administered to a male SD rat (supplied by Japan SLC, Inc.) to induce anesthesia, and then 25 mg/kg of pentobarbital sodium is subcutaneously administered to maintain anesthesia. The left femoral vein is exposed and detached, and then a polyethylene tube SP10 (connected to a three-way stopcock via a ¼ vein needle) filled with physiological saline is inserted and placed in the vein.
The inner side of the left femur is incised, and the femoral artery is exposed and detached. A polyethylene tube (SP31, connected to a three-way stopcock via a Terumo injection needle 22G) filled with heparized physiological saline is inserted in the artery, and is connected to a pressure transducer. The blood pressure is measured from the pressure transducer through a pressure amplifier (AP-641G, Nihon Koden Corp.). The heart rate is measured by the Heart Rate Counter (AT-601G, Nihon Koden Corp.), using the pulse wave of the blood pressure as the trigger. The blood pressure, mean blood pressure and heart rate are outputted to a recorder and recorded. Here, the mean blood pressure is recorded by a pressure amplifier (AP-641G) according to the formula: {diastolic blood pressure+(systolic blood pressure−diastolic blood pressure)/3 }.
Measurement of the blood pressure and heart rate is initiated, and it is checked that the respective values are almost constant. 3 mg/kg of the test compound is administered through the left femoral vein for 30 seconds. Specifically, 3 mg/mL of the test compound is rapidly administered at a dose volume of 1 mL/kg. The relative values of the values of average blood pressure and heart rate at each time point with respect to the same values obtained before the initiation of administration, are determined for each individual, and the average value±standard error of the relative values (%) obtainable when each parameter changes the most, is determined.

[4] = Table 1, Test Example 4, read-out: α1A receptor EC50
[5] = Table 2, Test Example 4, read-out: α1A receptor EC50

SMILES	EC50 [1] [nM]	Emax [1] [%]	relaxant activity (%) 10^−4 M [2] [%]	relaxant activity (%) 10^−5 M [2] [%]	increase in MBP (%) [3] [%]	α1A receptor I.A. ([1]; Table 2) [%]	EC50 ([1]; read-out: α1A receptor EC50, Table 2, Test Example 4) [nM]	EC50 [1, 4] [nM]	EC50 [1, 5] [nM]
CC(C)c1n[nH]c2cc(OCCNC[C@H](O)c3cccc(NS(C)(=O)=O)c3)ccc12 [Example 1, (R)-N-(3-(1-hydroxy-2-(2-(3-isopropylindazol-6-yloxy)ethylamino)ethyl)phenyl)methanesulfonamide]	> 2000	8	68.6	49.9	4.7 ± 2.1				
CCc1n[nH]c2cc(OCCNC[C@H](O)c3cccc(NS(C)(=O)=O)c3)ccc12 [Example 2, (R)-N-(3-(1-hydroxy-2-(2-(3-ethylindazol-6-yloxy)ethylamino)ethyl)phenyl)methanesulfonamide]	855	24	57.8	43.4	3.1 ± 0.5	24	855		
CCCc1n[nH]c2cc(OCCNC[C@H](O)c3cccc(NS(C)(=O)=O)c3)ccc12 [Example 3, (R)-N-(3-(1-hydroxy-2-(2-(3-propylindazol-6-yloxy)ethylamino)ethyl)phenyl)methanesulfonamide]		0			3.4 ± 3.7	0		> 2000	> 2000
CS(=O)(=O)Nc1cccc([C@@H](O)CNCCOc2ccc3c(C(F)(F)F)n[nH]c3c2)c1 [Example 4, (R)-N-(3-(1-hydroxy-2-(2-(3-trifluoromethylindazol-6-yloxy)ethylamino)ethyl)phenyl)methanesulfonamide]	892	40	73.5	40.8	3.1 ± 2.1				
CN(C)C(=O)CCc1n[nH]c2cc(OCCNC[C@H](O)c3cccc(NS(C)(=O)=O)c3)ccc12 [Example 5, (R)-3-(6-(2-(2-hydroxy-2-(3-(methylsulfonamido)phenyl)ethylamino)ethoxy)-indazol-3-yl)-N,N-dimethylpropanamide]		47	56.3	50.9	3.4 ± 2.2	47		836	
COCc1n[nH]c2cc(OCCNC[C@H](O)c3cccc(NS(C)(=O)=O)c3)ccc12 [Example 6, (R)-N-(3-(1-hydroxy-2-(2-(3-methoxymethylindazol-6-yloxy)ethylamino)ethyl)phenyl)methanesulfonamide]		20	42.6	35.3	2.8 ± 1.1			> 2000	
CCc1n[nH]c2cc(OCCNC[C@H](O)c3ccc(F)c(NS(C)(=O)=O)c3)ccc12 [Example 8, (R)-N-(5-(2-(2-(3-ethylindazol-6-yloxy)ethylamino)-1-hydroxyethyl)-2-fluorophenyl)methanesulfonamide]		5			0.4 ± 0.5				> 2000
CCc1n[nH]c2cc(OCCNC[C@H](O)c3ccc(Cl)c(NS(C)(=O)=O)c3)ccc12 [Example 9, (R)-N-(2-chloro-5-(2-(2-(3-ethylindazol-6-yloxy)ethylamino)-1-hydroxyethyl)phenyl)methanesulfonamide]		11			1.7 ± 2.7				> 2000
CS(=O)(=O)Nc1cc([C@@H](O)CNCCOc2ccc3c(C(F)(F)F)n[nH]c3c2)ccc1Cl [Example 11, (R)-N-(2-chloro-5-(1-hydroxy-2-(2-(3-(trifluoromethyl)indazol-6-yloxy)ethylamino)ethyl)phenyl)methanesulfonamide]		0	39.2	20.1	1.8 ± 1.4				> 2000
COc1n[nH]c2cc(OCCNC[C@H](O)c3cccc(NS(=O)(=O)c4ccccc4)c3)ccc12 [Example 16, (R)-N-(3-(1-hydroxy-2-(2-(3-methoxyindazol-6-yloxy)ethylamino)ethyl)phenyl)benzenesulfonamide]		0			6.6 ± 3.2				> 2000

— patent US8008506B2, “Indazole compounds” (priority 2008, dated 2011)
